The record followed here is US20080207645A1, “Pyridothienopyrimidine Derivatives” (priority 2004, published 2008).

SMILES strings stand for the structures.

The subject of this assay is PDE4. Kind of assay: PDE4 Assay Procedure ([3H]-cAMP SPA). To be noted: 15 nM [3H]-cAMP, 1 hour at room temperature, SPA beads. Type of assay: biochemical. How it is done: Compounds to be tested were resuspended in DMSO at a stock concentration of 1 mM. […] These dilutions were done in 96-well plates. In some cases, plates containing diluted compounds were frozen before being assayed. In these cases, the plates were thawed at room temperature and stirred for 15 minutes.
Ten microliters of the diluted compounds were poured into a “low binding” assay plate. […] The reaction was initiated by adding ten microliters of a solution containing PDE4. The plate was then incubated under stirring for 1 hour at room temperature. After incubation the reaction was stopped with 50 microlitres of SPA beads, and the reaction was allowed to incubate for another 20 minutes at room temperature before measuring radioactivity using standard instrumentation.
The reaction mixture was prepared by adding 90 ml of H2O to 10 ml of 10× assay buffer (500 mM Tris pH 7.5, 83 mM MgCl2, 17 mM EGTA), and 40 microlitres 1 μCi/μL [3H]-cAMP. SPA beads solution was prepared by adding 500 mg to […] H2O for a final concentration of 20 mg/ml beads and 18 mM zinc sulphate.

As usually defined, the IC50 is the concentration that gives 50% inhibition. Consider `CC(C)Cc1nc2sc3c(NCc4cccnc4)ncnc3c2c2c1COC(C)(C)C2` [Example 74, 5-Isobutyl-2,2-dimethyl-N-(pyridin-3-ylmethyl)-1,4-dihydro-2H-pyrano[4″,3″:4′,5′]pyrido[3′,2′:4,5]thieno[3,2-d]pyrimidin-8-amine], for which the IC50 is 22 nM. In the case of `CC1(C)Cc2c(c(N3CCOCC3)nc3sc4c(NCc5cccnc5)ncnc4c23)CO1` [Example 36, 2,2-dimethyl-5-morpholin-4-yl-N-(pyridin-3-ylmethyl)-1,4-dihydro-2H-pyrano[4″,3″:4′,5′]pyrido[3′,2′:4,5]thieno[3,2-d]pyrimidin-8-amine], 4.6 nM corresponded to half-maximal inhibition (IC50). For `CC(C)c1nc2sc3c(NCc4ccccn4)ncnc3c2c2c1COC(C)(C)C2` [Example 46, 2,2-Dimethyl-5-isopropyl-N-(pyridin-2-ylmethyl)-1,4-dihydro-2H-pyrano[4″,3″:4′,5′]pyrido[3′,2′:4,5]thieno[3,2-d]pyrimidin-8-amine], the IC50 came out at 14 nM. The result for `CCCc1nc2sc3c(NCCN4CCOCC4)ncnc3c2c2c1COC(C)(C)C2` [Example 38, 2,2-dimethyl-N-(2-morpholin-4-ylethyl)-5-propyl-1,4-dihydro-2H-pyrano[4″,3″:4′,5′]pyrido[3′,2′:4,5]thieno[3,2-d]pyrimidin-8-amine] reads 19 nM. The compound `CC1(C)Cc2c(c(N3CCCC3)nc3sc4c(NCCN5CCOCC5)ncnc4c23)CO1` [Example 27, 2,2-Dimethyl-5-pyrrolidin-1-yl-N-(2-morpholin-4-ylethyl)-1,4-dihydro-2H-pyrano[4″,3″:4′,5′]pyrido[3′,2′:4,5]thieno[3,2-d]pyrimidin-8-amine] came in with a 50% inhibitory concentration (IC50) of 23 nM. The result for `CC1(C)Cc2c(c(N3CCCC3)nc3sc4c(NCc5ccncc5)ncnc4c23)CO1` [Example 71, 2,2-Dimethyl-N-(pyridin-4-ylmethyl)-5-pyrrolidin-1-yl-1,4-dihydro-2H-pyrano[4″,3″:4′,5′]pyrido[3′,2′:4,5]thieno[3,2-d]pyrimidin-8-amine] reads 32 nM; that for `CC1(C)Cc2c(c(N3CCOCC3)nc3sc4c(NCCN5CCOCC5)ncnc4c23)CO1` [Example 20, 2,2-Dimethyl-5-morpholin-4-yl-N-(2-morpholin-4-ylethyl)-1,4-dihydro-2H-pyrano[4″,3″:4′,5′]pyrido[3′,2′:4,5]thieno[3,2-d]pyrimidin-8-amine], 26 nM. Then `CCC1(C)Cc2c(c(N3CCOCC3)nc3sc4c(NCc5cccnc5)ncnc4c23)CO1` (stereo not drawn) [Example 80, 2-Ethyl-2-methyl-5-morpholin-4-yl-N-(pyridin-3-ylmethyl)-1,4-dihydro-2H-pyrano[4″,3″:4′,5′]pyrido[3′,2′:4,5]thieno[3,2-d]pyrimidin-8-amine], with 13 nM; and `COCCN(C)c1nc2sc3c(NCc4cccnc4)ncnc3c2c2c1COC(C)(C)C2` [Example 59, N-(2-Methoxyethyl)-N,2,2-trimethyl-N-(pyridin-3-ylmethyl)-1,4-dihydro-2H-pyrano[4″,3″:4′,5′]pyrido[3′,2′:4,5]thieno[3,2-d]pyrimidine-5,8-diamine.], with 61 nM; and `CC1(C)Cc2c(c(N3CCOCC3)nc3sc4c(NCc5ccccn5)ncnc4c23)CO1` [Example 37, 2,2-dimethyl-5-morpholin-4-yl-N-(pyridin-2-ylmethyl)-1,4-dihydro-2H-pyrano[4″,3″:4′,5′]pyrido[3′,2′:4,5]thieno[3,2-d]pyrimidin-8-amine], with 21 nM. `CCCc1nc2sc3c(NCc4cccnc4)ncnc3c2c2c1COC(C)(C)C2` [Example 72, 2,2-Dimethyl-5-propyl-N-(pyridin-3-ylmethyl)-1,4-dihydro-2H-pyrano[4″,3″:4′,5′]pyrido[3′,2′:4,5]thieno[3,2-d]pyrimidin-8-amine] returned a concentration for half-maximal inhibition (IC50) of 24 nM. With `CC1(C)Cc2c(c(N3CCOCC3)nc3sc4c(NCc5ccncc5)ncnc4c23)CO1` [Example 55, 2,2-Dimethyl-5-morpholin-4-yl-N-(pyridin-4-ylmethyl)-1,4-dihydro-2H-pyrano[4″,3″:4′,5′]pyrido[3′,2′:4,5]thieno[3,2-d]pyrimidin-8-amine], the IC50 was 19 nM.
